From patent publication US20150290280A1, “ANTIMICROBIAL ARTICLES PRODUCED BY ADDITIVE MANUFACTURING” (ORTHOPAEDIC INNOVATION CENTER INC., priority 2012, published 2015)

Assays:
Staphylococcus aureus = test: Zones of inhibition around 3D-printed coupons on S. aureus plated on Tryptic soy agar (Example 1); assay type: cell-based; settings: 3D-printed PLA coupon (25 mm diameter) comprising 1% tobramycin; shiny side down; TSA; 72 h at 37° C.
Protocol: The 1% tobramycin/PLA filament was supplied to the extrusion nozzle of a STRATASYS® MOJO® FDM® 3D printer (STRATASYS and MOJO are registered trademarks of Stratasys Inc., Eden Prairie, Minn., USA) to print replicate test coupons with an extrusion temperature of 205° C. […] Control coupons having the same physical dimensions and appearance as the test coupons, were printed with the STRATASYS® MOJO® FDM® 3D printer by feeding the control PLA filament through the extrusion nozzle at an extrusion temperature of 205° C.
Aliquots of a culture of Staphylococcus aureus grown in Tryptic soy broth (TSB) were plated onto the surface of Tryptic soy agar (TSA) contained within Petri plates. Two test coupons were placed onto the plated S. aureus culture in a Petri plate with one shiny side down and one matte side down. Two control coupons were placed onto the plated S. aureus culture in a Petri plate with one shiny side down and one matte side down. Triplicate plates were prepared with test coupon and with control coupons. The Petri plates were incubated for 72 h at 37° C. after which, the plates were examined for the occurrence of zones of inhibition around the coupons. No inhibition of the growth of S. aureus in the Petri plates receiving the control coupons. […]

S. aureus = test: Elution of antibiotics from 3D-printed coupons assessed by inhibition of growth of S. aureus on Meuller Hinton agar (Examples 3 and 4); assay type: cell-based, Staphylococcus aureus; settings: about 72 hrs, 35-37° C., 25 = coupon diameter = no inhibition; for zone of inhibition, articles comprising PLA, antibiotic concentration 1%: 1% w/w antibiotic in PLA coupon; for zone of inhibition, articles comprising PLA, antibiotic concentration 2%: 2% w/w antibiotic in PLA coupon; for zone of inhibition, articles comprising PLA, antibiotic concentration 5%: 5% w/w antibiotic in PLA coupon; for zone of inhibition, articles comprising PCL polymer, antibiotic concentration 1%: 1% w/w antibiotic in PCL coupon; for zone of inhibition, articles comprising PCL polymer, antibiotic concentration 2%: 2% w/w antibiotic in PCL coupon; for zone of inhibition, articles comprising PCL polymer, antibiotic concentration 5%: 5% w/w antibiotic in PCL coupon
Protocol: Control coupons having the same physical dimensions and appearance as the test coupons, were printed with the […]® MOJO® printer by feeding the control filaments through the extrusion nozzle. The 2% and 5% tobramycin/PLA test coupons were printed with an extrusion temperature of 170° C., while the PLA control coupons and the 1% tobramycin/PLA test coupons were printed with an extrusion temperature of 205° C. The N12 control coupons, the 1%, 2%, and 5% gentamicin/N12 coupons, and the 1%, 2%, and 5% vancomycin/N12 coupons were printed at an extrusion temperature of 195° C. The remaining control coupons and test coupons were printed with an extrusion temperature of 170° C. The elution of antibiotics from the test coupons produced in Example 2 was assessed by the inhibition of the growth of S. aureus on the surfaces of Meuller Hinton agar contained within Petri dishes onto which test coupons placed. S. aureus cultures were grown on TSA amended with 5% sheep blood. A sufficient amount of S. aureus culture was transferred from the TSA culture plates to a 0.85% sterile saline solution to provide a uniform suspension that fell within a 0.5-2.0 McFarland turbidity standard. Aliquots of the S. aureus culture were plated onto Meuller Hinton agar in Petri dishes after which, two test coupons/dish (or alternatively, control coupons) were placed on the agar; one with its shiny side up and the other with its matte side up. The Meuller Hinton agar-containing Petri dishes were then incubated for about 72 hrs at temperatures in the range of about 35° C. to about 37° C. The zones of inhibition around each coupon were then measured and recorded (in mm) A clear zone around a test coupon indicates the inhibition of growth of S. aureus. […] The data shown in Tables 10, 11, and 12 confirm that all three antibiotics tested, i.e., tobramycin, gentamicin, and vancomycin, were eluted from articles printed with extruded antibiotic-containing polymers as evidenced by zones of inhibition of S. aureus cultures by articles comprising PLA polymer (Table 10), inhibition of S. aureus cultures by articles comprising PCL polymer (Table 11), and inhibition of S. aureus cultures by articles comprising HPDE polymer (Table 12). […] The control coupons for this study were taken from the batch of control coupons produced in Example 1. […] The data shown in Table 14 confirm that the three antibiotics were eluted from articles printed with extruded polymers comprising the three antibiotics.

## NC[C@H]1O[C@H](O[C@H]2[C@H](O)[C@@H](O[C@H]3O[C@H](CO)[C@@H](O)[C@H](N)[C@H]3O)[C@H](N)C[C@@H]2N)[C@H](N)C[C@@H]1O [Tobramycin, tobramycin]
Staphylococcus aureus
  zones of inhibition in the growth of S. aureus around the shiny surfaces: 37.7 mm
S. aureus; 1% w/w antibiotic in HDPE coupon
  zone of inhibition, articles comprising HDPE polymer, antibiotic concentration 1%: 27.0 mm
S. aureus
  zone of inhibition, articles comprising PLA, antibiotic concentration 1%: 37.7 mm
  zone of inhibition, articles comprising PLA, antibiotic concentration 2%: 27.5 mm
  zone of inhibition, articles comprising PLA, antibiotic concentration 5%: 28 mm
S. aureus; 2% w/w antibiotic in HDPE coupon
  zone of inhibition, articles comprising HDPE polymer, antibiotic concentration 2%: 28.5 mm
S. aureus; 5% w/w antibiotic in HDPE coupon
  zone of inhibition, articles comprising HDPE polymer, antibiotic concentration 5%: 37.5 mm

## CN[C@H](CC(C)C)C(=O)N[C@H]1C(=O)N[C@@H](CC(N)=O)C(=O)N[C@H]2C(=O)N[C@H]3C(=O)N[C@H](C(=O)N[C@H](C(=O)O)c4cc(O)cc(O)c4-c4cc3ccc4O)[C@H](O)c3ccc(c(Cl)c3)Oc3cc2cc(c3O[C@@H]2O[C@H](CO)[C@@H](O)[C@H](O)[C@H]2O[C@H]2C[C@](C)(N)[C@H](O)[C@H](C)O2)Oc2ccc(cc2Cl)[C@H]1O [Vancomycin, vancomycin]
S. aureus
  zone of inhibition, articles comprising PCL polymer, antibiotic concentration 1%: 28.5 mm
  zone of inhibition, articles comprising PCL polymer, antibiotic concentration 2%: 25 mm
  zone of inhibition, articles comprising PCL polymer, antibiotic concentration 5%: 28.5 mm

## gentamicin
S. aureus
  zone of inhibition, articles comprising PCL polymer, antibiotic concentration 1%: 32.0 mm
  zone of inhibition, articles comprising PLA, antibiotic concentration 1%: 34.0 mm
  zone of inhibition, articles comprising PCL polymer, antibiotic concentration 2%: 38.5 mm
  zone of inhibition, articles comprising PLA, antibiotic concentration 2%: 26.5 mm
  zone of inhibition, articles comprising PCL polymer, antibiotic concentration 5%: 41.0 mm
  zone of inhibition, articles comprising PLA, antibiotic concentration 5%: 37.5 mm
